The NIST ThermoML archive (doi:10.1016/j.jct.2018.07.006)
Several values for one entry are separate records, joined by “and”; a condition that tells them apart may be missing. Equal values may be shown once. ± gives the expanded uncertainty stated by the source.

Experiment: mn = molality of the nth substance listed, in mol/kg
Details: 100 kPa, Liquid; for speed of sound: Frequency=3 MHz, Single path-length method; for mass density: Vibrating tube method

CC(C)(CO)[C@@H](O)C(=O)NCCCO [d-Panthenol] + O
speed of sound (293.15 K, m1 = 0.05): 1489.4 ± 2 m/s | speed of sound (293.15 K, m1 = 0.1): 1494.1 ± 2 m/s | speed of sound (293.15 K, m1 = 0.15): 1498.5 ± 2 m/s | mass density (293.15 K, m1 = 0.05): 999.509 ± 0.3 kg/m3 | mass density (293.15 K, m1 = 0.1): 1001.62 ± 0.32 kg/m3 | mass density (293.15 K, m1 = 0.15): 1003.34 ± 0.32 kg/m3 | speed of sound (298.15 K, m1 = 0.05): 1503 ± 2 m/s | speed of sound (298.15 K, m1 = 0.1): 1507.6 ± 2 m/s | speed of sound (298.15 K, m1 = 0.15): 1511.6 ± 2 m/s | mass density (298.15 K, m1 = 0.05): 998.191 ± 0.3 kg/m3 | mass density (298.15 K, m1 = 0.1): 1000.22 ± 0.31 kg/m3 | mass density (298.15 K, m1 = 0.15): 1002.12 ± 0.32 kg/m3 and 1002.09 ± 0.32 kg/m3 | speed of sound (303.15 K, m1 = 0.05): 1515.5 ± 2 m/s and 1516 ± 2 m/s | speed of sound (303.15 K, m1 = 0.1): 1519.5 ± 2 m/s and 1517.9 ± 2 m/s | speed of sound (303.15 K, m1 = 0.15): 1522.9 ± 2 m/s | mass density (303.15 K, m1 = 0.05): 996.926 ± 0.3 kg/m3 | mass density (303.15 K, m1 = 0.1): 998.987 ± 0.31 kg/m3 | mass density (303.15 K, m1 = 0.15): 1000.58 ± 0.32 kg/m3 | speed of sound (308.15 K, m1 = 0.05): 1525.2 ± 2 m/s | speed of sound (308.15 K, m1 = 0.1): 1529.1 ± 2.2 m/s | speed of sound (308.15 K, m1 = 0.15): 1532.5 ± 2 m/s | mass density (308.15 K, m1 = 0.05): 995.295 ± 0.3 kg/m3 | mass density (308.15 K, m1 = 0.1): 997.338 ± 0.31 kg/m3 | mass density (308.15 K, m1 = 0.15): 998.985 ± 0.32 kg/m3
